Laboratory results from patent publication US10882845B2, “Crystal form of deuterated AZD9291, preparation method therefor, and use thereof” (TYK MEDICINES INC., priority 2017, dated 2021).
Structures can show the parent of a compound that is named as a salt. Each block holds one compound with its values, some of them ahead of it.

Assays:
[1] = Passage through the blood-brain barrier into the brain; type: in vivo; conditions: in the body
From the text: At present, some deuterated AZD9291 compounds have been reported in CN104140418B and CN105237515A, but no crystal forms of the pharmaceutically acceptable salt of deuterated AZD9291 have been reported. A crystal form is a solid state of a drug. The study of the drug crystal form is the study of the basic state of the drug. It is impossible to find a crystal form of a drug (solid material) that is more suitable for treating the disease, unless having a full and comprehensive understanding of the crystal form of the chemical drug. The crystal form of a drug can affect physical and chemical properties of the drug, and directly affect the clinical basis of the drug to play a role in the treatment of disease. At the same time, due to the solubility of some drugs, such drugs shall be made into a pharmaceutically acceptable salt, which can greatly improve its solubility and improve the absorption and utilization of drugs. The applicant has been engaged in the research of drugs for lung cancer, started drug research on EGFR targets very early, and has obtained a series of research results6, such as patent applications CN102659692, U.S. Ser. No. 08/916,572, CN107382879, WO2017219500 and WO2018050052. […] Therefore, it has no effect on tumors metastasized to the brain. […]

in vivo = conditions: rat, po
From the text: Moreover, a single impurity is below 0.1%, which is in line with requirements for the development of API and CMC.
The high bioavailability of oral administration proves that this crystal form is suitable for the development of oral preparations.

[2] = Accelerated stability test (drug accelerated stability test chamber, 40° C., relative humidity 75%); type: physicochemical; conditions: 75% RH
Protocol: The stability of the crystal form of the compound represented by the formula (I) or the formula (II) was further measured, and the apparatus used was a drug accelerated stability test chamber; the accelerated test condition was 40° C., and the relative humidity was 75%. After an accelerated test for six months in the drug accelerated stability test chamber was completed, a sample of the crystal form of the compound of the formula (I) or the formula (II) was obtained and subjected to X-ray powder diffraction analysis, and the obtained X-ray powder diffraction pattern was as shown in FIG. 2.

[3] = Stability at room temperature; type: physicochemical; conditions: for Purity (HPLC) / character (visual inspection) / hygroscopicity (visual inspection): room temperature
From the text: The crystal form of the compound of the formula (I) or the formula (II) obtained by the method 1 or the method 2 of the present invention is not changed in moisture absorption or the like after being left at room temperature for 1 month. […] Its purity was as high as 99.83%, and the content of each single impurity was below 0.1%, which was suitable for the subsequent development of active pharmaceutical ingredient and preparations as well as subsequent pharmacokinetic experiments and zoological experiments.
The crystal form of deuterated AZD9291 mesylate prepared in the present invention was placed in a laboratory at room temperature, and the stability at room temperature was examined.

[4] = Accelerated stability test (drug accelerated stability test chamber, 40° C., relative humidity 75%); type: physicochemical; conditions: 75% RH; remark: listed apart in the source

SMILES: C=CC(=O)Nc1cc(Nc2nccc(-c3c[nH]c4ccccc34)n2)c(OC)cc1N(C)CCN(C)C [AZ5104]
passage through the blood-brain barrier [1]: cannot pass through the blood-brain barrier

SMILES: C=CC(=O)Nc1cc(Nc2nccc(-c3cn(C)c4ccccc34)n2)c(OC)cc1N(C)CCN(C)C [compound of formula III]
passage through the blood-brain barrier [1]: can enter the brain through the blood-brain barrier

AUC (in vivo): 1270 ng·h/mL
bioavailability (in vivo): 30.9%
highest blood concentration (in vivo): 117 ng/mL
crystal form (X-ray powder diffraction) ([2]; month 6, listed as crystal form of the compound represented by the formula (I) or the formula (II)): no crystal
crystal form (X-ray powder diffraction) ([2]; month 6, listed as crystal form of the present invention): maintained
change in moisture absorption or the like ([3]; left at room temperature for 1 month): not changed
Purity (HPLC) ([3]; day 0): 99.73%
character (visual inspection) ([3]; day 0): off-white powder
Purity (HPLC) ([3]; day 15): 99.70%
character (visual inspection) ([3]; day 15): off-white powder
hygroscopicity (visual inspection) ([3]; day 15): (no hygroscopicity)
Purity (HPLC) ([3]; day 30): 99.74%
character (visual inspection) ([3]; day 30): off-white powder
hygroscopicity (visual inspection) ([3]; day 30): (no hygroscopicity)
character (visual inspection) ([4]; month 0): off-white
compound purity (HPLC) ([4]; month 0): 99%,
deuteration rate (HNMR) ([4]; month 0): rate 99%
character (visual inspection) ([4]; month 1): off-white,
compound purity (HPLC) ([4]; month 1): 99%,
deuteration rate (HNMR) ([4]; month 1): rate 99%
hygroscopicity (visual inspection) ([4]; month 1): no
character (visual inspection) ([4]; month 2): off white,
compound purity (HPLC) ([4]; month 2): 99%,
deuteration rate (HNMR) ([4]; month 2): rate 99%
hygroscopicity (visual inspection) ([4]; month 2): no
character (visual inspection) ([4]; month 3): off white,
compound purity (HPLC) ([4]; month 3): 99%,
deuteration rate (HNMR) ([4]; month 3): rate 99%
hygroscopicity (visual inspection) ([4]; month 3): no
character (visual inspection) ([4]; month 4): off white,
compound purity (HPLC) ([4]; month 4): 99%,
deuteration rate (HNMR) ([4]; month 4): rate 99%
hygroscopicity (visual inspection) ([4]; month 4): no
character (visual inspection) ([4]; month 6): off white,
compound purity (HPLC) ([4]; month 6): 99%,
deuteration rate (HNMR) ([4]; month 6): rate 99%
hygroscopicity (visual inspection) ([4]; month 6): no
SMILES: [2H]C([2H])([2H])n1cc(-c2ccnc(Nc3cc(NC(=O)C=C)c(N(C)CCN(C)C)cc3OC)n2)c2ccccc21 [deuterated AZD9291 mesylate crystal form]
